In the supplement of paper PMC4380931:

Legend:
WM1552C [1] = assay: apoptotic fraction of cells (caspase-3 NucView488 positive); higher = more apoptosis
Description: (§1)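 BRAF V600E/D melanoma cell lines were seeded in 96-well plates, treated in 4 replicates with seven doses (3.16 nM to 3.16 uM) of RAF/MEK inhibitors for 24, 48 or 72 h, and stained with Hoechst 33342 (nuclei) and DEVD-NucView488 caspase-3 substrate. Plates were imaged on an Operetta. Relative viability is the cell count normalised to a DMSO-treated control; apoptosis fraction is the fraction of NucView488-positive nuclei.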

WM115 = assay: as above
Description: as §1

MZ7MEL = assay: as above
Description: as §1

SKMEL28 = assay: as above
Description: as §1

MMACSF = assay: as above
Description: as §1

WM1552C [2] = assay: relative viability (cell count relative to DMSO-treated control) (fraction of DMSO control); higher = more viable cells / less drug effect
Description: as §1

C32 = assay: as above
Description: as §1

Cn1cnc2c(F)c(Nc3ccc(Br)cc3Cl)c(C(=O)NOCCO)cc21 [Selumetinib]
Conditions	apoptotic fraction of cells, MMACSF	apoptotic fraction of cells, MZ7MEL	apoptotic fraction of cells, SKMEL28	apoptotic fraction of cells, WM115	apoptotic fraction of cells, WM1552C [1]	relative viability, C32	relative viability, WM1552C [2]
24 h, 0.00316 µM	0.0508	0.0105	–	0.0496	0.0571	1.02	0.97
24 h, 0.01 µM	0.0478	0.0133	–	0.0509	0.0689	1.02	0.993
24 h, 0.0316 µM	0.0349	0.0129	–	0.0515	0.0771	1	1.0822
24 h, 0.1 µM	0.0436	0.013	–	0.0423	0.0894	0.891	1.07
24 h, 0.316 µM	0.0526	0.021	–	0.0578	0.0876	0.938	1.03
24 h, 1 µM	0.0569	0.03	–	0.102	0.112	0.861	1.06
24 h, 3.16 µM	0.0615	0.0358	–	0.143	0.0803	0.811	0.947
48 h, 0.00316 µM	0.0481	0.02	0.0348	0.0459	0.065	1.24	0.947
48 h, 0.01 µM	0.039	0.0157	0.0333	0.0343	0.0655	1.09	0.992
48 h, 0.0316 µM	0.0469	0.0142	0.0343	0.0345	0.0575	1.15	0.956
48 h, 0.1 µM	0.0518	0.0195	0.0355	0.0394	0.0656	0.959	0.867
48 h, 0.316 µM	0.0667	0.0385	0.0422	0.072	0.0753	0.71	0.761
48 h, 1 µM	0.14	0.0514	0.0573	0.186	0.0765	0.322	0.676
48 h, 3.16 µM	0.232	0.0696	0.0991	0.269	0.1	0.127	0.677
72 h, 0.00316 µM	0.0392	0.0201	0.036	0.0278	0.0885	0.891	0.862
72 h, 0.01 µM	0.0379	0.0173	0.0338	0.027	0.073	0.998	0.918
72 h, 0.0316 µM	0.0318	0.0366	0.0305	0.0324	0.0737	0.952	0.806
72 h, 0.1 µM	0.0807	0.108	0.037	0.0559	0.0814	0.698	0.635
72 h, 0.316 µM	0.193	0.158	0.0563	0.115	0.104	0.347	0.526
72 h, 1 µM	0.434	0.239	0.111	0.302	0.146	0.112	0.44
72 h, 3.16 µM	0.617	0.314	0.214	0.456	0.19	0.0615	0.411

CCCS(=O)(=O)Nc1ccc(F)c(C(=O)c2c[nH]c3ncc(-c4ccc(Cl)cc4)cc23)c1F [Vemurafenib]
Conditions	apoptotic fraction of cells, MMACSF	apoptotic fraction of cells, MZ7MEL	apoptotic fraction of cells, SKMEL28	apoptotic fraction of cells, WM115	apoptotic fraction of cells, WM1552C [1]	relative viability, C32	relative viability, WM1552C [2]
24 h, 0.00316 µM	0.0413	0.0137	–	0.0555	0.0617	0.987	0.92
24 h, 0.01 µM	0.0384	0.0131	–	0.0451	0.0655	0.995	0.969
24 h, 0.0316 µM	0.0409	0.00722	–	0.0561	0.0602	1.03	0.912
24 h, 0.1 µM	0.0412	0.00978	–	0.0385	0.0665	0.985	1.06
24 h, 0.316 µM	0.0459	0.0118	–	0.0444	0.0682	0.997	1.03
24 h, 1 µM	0.0484	0.0206	–	0.0572	0.0745	0.927	0.987
24 h, 3.16 µM	0.0553	0.0379	–	0.0792	0.0696	0.637	0.875
48 h, 0.00316 µM	0.0481	0.0184	0.0412	0.0621	0.078	1.07	0.9247
48 h, 0.01 µM	0.0447	0.0167	0.0316	0.0504	0.0701	0.901	1
48 h, 0.0316 µM	0.0414	0.0196	0.0337	0.0424	0.0688	0.891	1.01
48 h, 0.1 µM	0.0439	0.0148	0.0359	0.0407	0.0684	0.96	1
48 h, 0.316 µM	0.0499	0.0203	0.0364	0.0303	0.063	0.988	1.06
48 h, 1 µM	0.0573	0.0385	0.038	0.045	0.0641	0.551	0.886
48 h, 3.16 µM	0.122	0.0682	0.0538	0.116	0.0951	0.102	0.719
72 h, 0.00316 µM	0.0401	0.0218	0.0393	0.0323	0.088	1.04	1.06
72 h, 0.01 µM	0.0441	0.0158	0.0398	0.0325	0.0756	1.07	1.14
72 h, 0.0316 µM	0.0407	0.0159	0.0297	0.0317	0.0733	1.02	1.17
72 h, 0.1 µM	0.0382	0.0167	0.0272	0.0278	0.0668	0.875	1.2
72 h, 0.316 µM	0.0493	0.0378	0.0276	0.0361	0.0671	0.684	1.06
72 h, 1 µM	0.265	0.103	0.0399	0.125	0.0874	0.162	0.671
72 h, 3.16 µM	0.692	0.193	0.147	0.407	0.164	0.0274	0.42

CCCS(=O)(=O)Nc1ccc(F)c(C(=O)c2c[nH]c3ncc(Cl)cc23)c1F [PLX4720]
Conditions	apoptotic fraction of cells, MMACSF	apoptotic fraction of cells, MZ7MEL	apoptotic fraction of cells, SKMEL28	apoptotic fraction of cells, WM115	apoptotic fraction of cells, WM1552C [1]	relative viability, C32	relative viability, WM1552C [2]
24 h, 0.00316 µM	0.0449	0.013	–	0.0488	0.0609	0.98	1.02
24 h, 0.01 µM	0.0443	0.0082	–	0.0373	0.0582	1	1.05
24 h, 0.0316 µM	0.0397	0.01	–	0.0513	0.0522	1.04	1.031
24 h, 0.1 µM	0.0422	0.00501	–	0.0369	0.0708	1.01	1.08
24 h, 0.316 µM	0.0417	0.00918	–	0.0371	0.0728	0.942	1.02
24 h, 1 µM	0.0492	0.0127	–	0.0643	0.0756	0.824	1.064
24 h, 3.16 µM	0.0464	0.0325	–	0.0673	0.0738	0.693	0.9942
48 h, 0.00316 µM	0.0462	0.0158	0.0324	0.0421	0.0618	1.11	0.976
48 h, 0.01 µM	0.0457	0.0193	0.0306	0.0454	0.0656	0.905	0.994
48 h, 0.0316 µM	0.0434	0.0129	0.0349	0.0356	0.0655	0.929	1.01
48 h, 0.1 µM	0.0443	0.0113	0.035	0.0312	0.0534	1.01	0.977
48 h, 0.316 µM	0.0469	0.0205	0.0365	0.0333	0.044	0.857	0.839
48 h, 1 µM	0.0555	0.0277	0.0401	0.0466	0.0563	0.454	0.795
48 h, 3.16 µM	0.0933	0.0483	0.0568	0.122	0.0762	0.155	0.723
72 h, 0.00316 µM	0.0394	0.0184	0.0401	0.0312	0.0768	0.957	1.04
72 h, 0.01 µM	0.0424	0.0171	0.0409	0.0316	0.0708	1.08	1.13
72 h, 0.0316 µM	0.0386	0.0142	0.0321	0.0268	0.0682	1.1	1.13
72 h, 0.1 µM	0.0346	0.0198	0.0301	0.0303	0.063	0.937	1.03
72 h, 0.316 µM	0.0549	0.0439	0.0373	0.0415	0.0671	0.516	0.83
72 h, 1 µM	0.218	0.105	0.0372	0.129	0.0953	0.182	0.576
72 h, 3.16 µM	0.534	0.151	0.105	0.381	0.129	0.0669	0.497
